The melting point is the temperature of the solid-liquid transition.

SMILES strings stand for the structures.

In data set [1] the test system is human embryonic stem cell derived neural stem cells (NSCs). Put plainly: Neural Stem Cell Proliferation Assay (neurogenesis assay, ATP levels by CellTiterGlo). The format is cell-based. To be noted: 96 h, compound concentration at which 150% activity of control (100%) is reached, NSC proliferation by ATP level after 4 days incubation, dose response 8 μM to 8 nM. Put shortly:
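Human ESC-derived NSCs (dual SMAD inhibition) seeded 4 h before compounds, 11-point 2-fold series 8 μM–8 nM; 4 days at 37 °C, 5% CO2. ATP by CellTiterGlo luminescence as cell-number proxy, response as % of media control (0.25% DMSO); EC150 = concentration giving 150% of control.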
In general terms: In ATP-based viability assays light output follows the ATP content of the culture.

As to `Cc1c2n(c3c(-c4ccc5c(c4)OCO5)cc(F)cc13)CCNC2=O` [Example 123, 6-Benzo[1,3]dioxol-5-yl-8-fluoro-10-methyl-3,4-dihydro-2H-pyrazino[1,2-a]indol-1-one], the melting point was 206 °C. In data set [1], this molecule displayed an EC (150% of control) of 0.031 µM.

On to `O=C1NCCCn2c1cc1cc(F)cc(-c3ccc(F)c(F)c3)c12` [Example 28, 7-(3,4-Difluoro-phenyl)-9-fluoro-2,3,4,5-tetrahydro-[1,4]diazepino[1,2-a]indol-1-one], for which the melting point turned out to be 230.5 °C. In data set [1], this molecule yielded an EC (150% of control) of 0.1 µM.

The molecule `N#Cc1cc(-c2ccc(F)cc2F)c2c(c1)cc1n2CCNC1=O` [Example 173, 6-(2,4-Difluoro-phenyl)-1-oxo-1,2,3,4-tetrahydro-pyrazino[1,2-a]indole-8-carbonitrile] registered a melting point of 292 °C. This molecule also had an EC (150% of control) in data set [1] of 0.01 µM.

In turn, `COc1ccc(-c2cc(Cl)cc3c(C)c4n(c23)CCNC4=O)cc1` [Example 67, 8-Chloro-6-(4-methoxy-phenyl)-10-methyl-3,4-dihydro-2H-pyrazino[1,2-a]indol-1-one] displayed a melting point of 264 °C. The EC (150% of control) in data set [1] was found to be 0.008 µM.

Turning to `C[C@@H]1CNC(=O)c2cc3cc(F)cc(-c4ccc(F)cc4)c3n21` [Example 6, (R)-8-Fluoro-6-(4-fluoro-phenyl)-4-methyl-3,4-dihydro-2H-pyrazino[1,2-a]indol-1-one], the melting point worked out at 276 °C. In addition, the EC (150% of control) in data set [1] amounted to 0.22 µM.

Molecule `Cc1c2n(c3c(-c4ccc(N)nc4)cc(F)cc13)CCNC2=O` [Example 160, 6-(6-Amino-pyridin-3-yl)-8-fluoro-10-methyl-3,4-dihydro-2H-pyrazino[1,2-a]indol-1-one] came in with a melting point of 254 °C. Also, the EC (150% of control) in data set [1] came out at 0.18 µM.

In the case of `Cc1c2n(c3c(-c4ccc(C(C)(C)C)cc4)cc(F)cc13)CCNC2=O` [Example 132, 6-(4-tert-Butyl-phenyl)-8-fluoro-10-methyl-3,4-dihydro-2H-pyrazino[1,2-a]indol-1-one], the melting point is 216 °C. For the same molecule, the EC (150% of control) in data set [1] worked out at 0.046 µM.

For the molecule `CN1CCn2c(cc3cc(F)cc(-c4ccc(F)cc4)c32)C1=O` [Example 63, 8-Fluoro-6-(4-fluoro-phenyl)-2-methyl-3,4-dihydro-2H-pyrazino[1,2-a]indol-1-one], the melting point was determined as 212 °C. Moreover, in data set [1], the EC (150% of control) was 0.6 µM.

On to `Cc1c2n(c3c(-c4ccccc4)cc(Cl)cc13)CCNC2=O` [Example 88, 8-Chloro-10-methyl-6-phenyl-3,4-dihydro-2H-pyrazino[1,2-a]indol-1-one], for which the melting point is 230.5 °C. The same molecule showed an EC (150% of control) in data set [1] of 0.053 µM.

`Cc1c2n(c3c(-c4cccc(F)c4)cc(Cl)cc13)CCNC2=O` [Example 96, 8-Chloro-6-(3-fluoro-phenyl)-10-methyl-3,4-dihydro-2H-pyrazino[1,2-a]indol-1-one] yielded a melting point of 239 °C. Also, in data set [1], the EC (150% of control) worked out at 0.15 µM.

`N#Cc1cc(-c2ccc(CO)cc2)c2c(c1)cc1n2CCNC1=O` [Example 228, 6-[4-(Hydroxymethyl)-phenyl]-1-oxo-3,4-dihydro-2H-pyrazino[1,2-a]indole-8-carbonitrile] showed a melting point of 257.5 °C. In data set [1], this molecule yielded an EC (150% of control) of 0.041 µM.

`Cc1c2n(c3c(-c4ccc(OC(F)(F)F)cc4)cc(Cl)cc13)CCNC2=O` [Example 133, 8-Chloro-10-methyl-6-(4-trifluoromethoxy-phenyl)-3,4-dihydro-2H-pyrazino[1,2-a]indol-1-one] gave a melting point of 212 °C. Moreover, the EC (150% of control) in data set [1] was 0.004 µM.

The molecule `N#Cc1cc(-c2cccc(F)c2)c2c(c1)cc1n2CCNC1=O` [Example 223, 6-(3-Fluorophenyl)-1-oxo-3,4-dihydro-2H-pyrazino[1,2-a]indole-8-carbonitrile] gave a melting point of 248.5 °C. Further, the EC (150% of control) in data set [1] turned out to be 0.076 µM.

`Cc1c2n(c3c(-c4ccc(Cl)nc4)cc(Cl)cc13)CCNC2=O` [Example 112, 8-Chloro-6-(6-chloro-pyridin-3-yl)-10-methyl-3,4-dihydro-2H-pyrazino[1,2-a]indol-1-one] gave a melting point of 276 °C. The molecule also returned an EC (150% of control) in data set [1] of 0.012 µM.

For `N#Cc1cc(-c2ccc(Cl)cc2)c2c(c1)cc1n2CCNC1=O` [Example 77, 6-(4-Chloro-phenyl)-1-oxo-1,2,3,4-tetrahydro-pyrazino[1,2-a]indole-8-carbonitrile], the melting point came out at 316.5 °C. Further, the EC (150% of control) in data set [1] turned out to be 0.02 µM.

The molecule `Cc1c2n(c3c(-c4ccc(F)cc4F)cc(C#N)cc13)CCCNC2=O` [Example 205, 7-(2,4-Difluorophenyl)-11-methyl-1-oxo-2,3,4,5-tetrahydro-[1,4]diazepino[1,2-a]indole-9-carbonitrile] displayed a melting point of 225 °C. In data set [1], this molecule came in with an EC (150% of control) of 0.031 µM.

`O=C1NCCCn2c1cc1cc(Cl)cc(-c3ccc(F)cc3)c12` [Example 48, 9-Chloro-7-(4-fluoro-phenyl)-2,3,4,5-tetrahydro-[1,4]diazepino[1,2-a]indol-1-one] had a melting point of 260 °C. Moreover, the EC (150% of control) in data set [1] was 0.43 µM.

Consider `Cc1c2n(c3c(-c4ccc(C#N)cc4)cc(C#N)cc13)CCNC2=O` [Example 166, 6-(4-Cyano-phenyl)-10-methyl-1-oxo-1,2,3,4-tetrahydro-pyrazino[1,2-a]indole-8-carbonitrile], for which the melting point turned out to be 323 °C. The molecule also registered an EC (150% of control) in data set [1] of 0.028 µM.

`Cc1c2n(c3c(-c4cccnc4)cc(C#N)cc13)CCCNC2=O` [Example 298, 11-Methyl-1-oxo-7-pyridin-3-yl-2,3,4,5-tetrahydro-[1,4]diazepino[1,2-a]indole-9-carbonitrile] had a melting point of 260 °C. In data set [1], this molecule came in with an EC (150% of control) of 1 µM.

Molecule `N#Cc1cc(-c2ccc(OC(F)(F)F)cc2)c2c(c1)cc1n2CCNC1=O` [Example 190, 1-Oxo-6-[4-(trifluoromethoxy)phenyl]-3,4-dihydro-2H-pyrazino[1,2-a]indole-8-carbonitrile] came in with a melting point of 311.5 °C. In addition, the EC (150% of control) in data set [1] amounted to 0.037 µM.

The molecule `O=C1NCCCn2c1cc1cc(Cl)cc(-c3ccc(F)c(F)c3)c12` [Example 46, 9-Chloro-7-(3,4-difluoro-phenyl)-2,3,4,5-tetrahydro-[1,4]diazepino[1,2-a]indol-1-one] came in with a melting point of 230.5 °C. In data set [1], this molecule came in with an EC (150% of control) of 0.69 µM.

In turn, `Cc1c2n(c3c(-c4cnc(N)nc4)cc(Cl)cc13)CCNC2=O` [Example 143, 6-(2-Amino-pyrimidin-5-yl)-8-chloro-10-methyl-3,4-dihydro-2H-pyrazino[1,2-a]indol-1-one] displayed a melting point of 316 °C. Besides, the EC (150% of control) in data set [1] is 0.32 µM.

In turn, `Cc1ccc(-c2cc(F)cc3cc4n(c23)CCNC4=O)cc1` [Example 24, 8-Fluoro-6-p-tolyl-3,4-dihydro-2H-pyrazino[1,2-a]indol-1-one] came in with a melting point of 271.5 °C. The molecule also showed an EC (150% of control) in data set [1] of 0.017 µM.

`Cc1c2n(c3c(-c4ccc(F)c(F)c4F)cc(C#N)cc13)CCNC2=O` [Example 246, 10-Methyl-1-oxo-6-(2,3,4-trifluorophenyl)-3,4-dihydro-2H-pyrazino[1,2-a]indole-8-carbonitrile] gave a melting point of 238 °C. In addition, the EC (150% of control) in data set [1] amounted to 0.084 µM.

In turn, `Cc1ccc(-c2cc(F)cc3c(C)c4n(c23)CCNC4=O)cc1` [Example 81, 8-Fluoro-10-methyl-6-p-tolyl-3,4-dihydro-2H-pyrazino[1,2-a]indol-1-one] displayed a melting point of 226 °C. Also, the EC (150% of control) in data set [1] turned out to be 0.014 µM.

`Cc1c2n(c3c(-c4ccc(F)cc4F)cc(Cl)cc13)CCNC2=O` [Example 100, 8-Chloro-6-(2,4-difluoro-phenyl)-10-methyl-3,4-dihydro-2H-pyrazino[1,2-a]indol-1-one] had a melting point of 238 °C. The EC (150% of control) in data set [1] amounted to 0.009 µM.

For the molecule `O=C1NCCCn2c1cc1cc(F)cc(-c3ccc(F)cc3)c12` [Example 17, 9-Fluoro-7-(4-fluoro-phenyl)-2,3,4,5-tetrahydro-[1,4]diazepino[1,2-a]indol-1-one], the melting point is 239.5 °C. This molecule showed an EC (150% of control) in data set [1] of 0.05 µM.

`Cc1c2n(c3c(-c4ccc(Cl)c(Cl)c4)cc(F)cc13)CCNC2=O` [Example 86, 6-(3,4-Dichloro-phenyl)-8-fluoro-10-methyl-3,4-dihydro-2H-pyrazino[1,2-a]indol-1-one]: the melting point turned out to be 224 °C. Moreover, the EC (150% of control) in data set [1] came to 0.05 µM.

As for `O=C1NCCCn2c1cc1cc(F)c(F)c(-c3ccc(F)c(F)c3)c12` [Example 42, 7-(3,4-Difluoro-phenyl)-8,9-difluoro-2,3,4,5-tetrahydro-[1,4]diazepino[1,2-a]indol-1-one], the melting point was 225 °C. Besides, in data set [1], the EC (150% of control) was 0.21 µM.

As for `N#Cc1cc(-c2ccc(Cl)cc2F)c2c(c1)cc1n2CCCNC1=O` [Example 219, 7-(4-Chloro-2-fluorophenyl)-1-oxo-2,3,4,5-tetrahydro-[1,4]diazepino[1,2-a]indole-9-carbonitrile], the melting point came out at 217.5 °C. This molecule also gave an EC (150% of control) in data set [1] of 0.08 µM.

`Cc1ccc(-c2cc(C#N)cc3c(C)c4n(c23)CCNC4=O)cc1` [Example 258, 10-Methyl-6-(4-methylphenyl)-1-oxo-3,4-dihydro-2H-pyrazino[1,2-a]indole-8-carbonitrile] had a melting point of 277 °C. The same molecule had an EC (150% of control) in data set [1] of 0.035 µM.

On to `Cc1c2n(c3c(-c4cccc(F)c4)cc(C#N)cc13)CCNC2=O` [Example 259, 6-(3-Fluorophenyl)-10-methyl-1-oxo-3,4-dihydro-2H-pyrazino[1,2-a]indole-8-carbonitrile], for which the melting point was found to be 226 °C. Besides, the EC (150% of control) in data set [1] amounted to 0.06 µM.
